What is called chromatographic logP is lipophilicity estimated from chromatographic retention.

The test system of one series is Phytophthora infestans. The series can be described thus: whole plant or invertebrate. Format: in vivo. The conditions noted are these: in Solanum lycopersicum, 72 h, read-out: Efficacy.
A short description of series [1]: logP by HPLC (EEC Directive 79/831 Annex V. A8, gradient method). Particulars: acetonitrile/0.1% aqueous phosphoric acid. Format: physicochemical. The method, then: In Table 1, Me represents methyl. The logP values were determined in accordance with EEC Directive 79/831 Annex V. A8 by HPLC (gradient method, acetonitrile/0.1% aqueous phosphoric acid).

Each structure is given as a SMILES string.

For `Cc1ccc(C)c(Oc2noc(=O)n2S(=O)(=O)N(C)C)c1` [Example 1, N,N-dimethyl-3-(2,5-dimethylphenoxy)-5-oxo-[1,2,4]oxadiazole-4-sulphonamide], in the series with Phytophthora infestans, the pest or weed control at 100 g/ha is 99%.

Turning to `CCS(=O)(=O)n1c(Oc2cc(C)ccc2C)noc1=O` [Example 2, 3-(2,5-dimethylphenoxy)-4-ethanesulphonyl-4H-[1,2,4]oxadiazol-5-one], in the series on Phytophthora infestans, the pest or weed control at 100 g/ha came to 95%.

`COc1ccc(Oc2noc(=O)n2S(=O)(=O)c2ccc(C)cc2)cc1` [Example 3] showed a chromatographic logP in series [1] of 3.34.

As to `Cc1ccc(S(=O)(=O)n2c(Oc3cc(C)ccc3C)noc2=O)cc1` [Example 4], in series [1], the chromatographic logP worked out at 3.93.

Consider `Cc1ccc(S(=O)(=O)n2c(Oc3ccc(F)cc3)noc2=O)cc1` [Example 6], for which the chromatographic logP in series [1] was 3.39.

Consider `Cc1ccc(C)c(Oc2noc(=O)n2S(C)(=O)=O)c1` [Example 8], for which the chromatographic logP in series [1] stood at 2.7.

Compound `Cc1ccc(S(=O)(=O)n2c(Oc3ccc(C)cc3C)noc2=O)cc1` [Example 9] showed a chromatographic logP in series [1] of 3.89.

Regarding `Cc1ccc(Oc2noc(=O)n2S(C)(=O)=O)c(C)c1` [Example 10], the chromatographic logP in series [1] is 2.73. In the series with Phytophthora infestans, the pest or weed control at 100 g/ha worked out at 92%.

Take `Cc1ccc(Oc2noc(=O)n2S(=O)(=O)N(C)C)c(C)c1` [Example 12]: in series [1], the chromatographic logP came to 3.13. The pest or weed control at 100 g/ha in the series on Phytophthora infestans was determined as 97%.

Consider `COc1ccc(Oc2noc(=O)n2S(=O)(=O)N(C)C)cc1` [Example 13], for which, in series [1], the chromatographic logP was found to be 2.5. In addition, the pest or weed control at 100 g/ha in the series with Phytophthora infestans worked out at 92%.

On to `CCS(=O)(=O)n1c(Oc2ccc(C)cc2C)noc1=O` [Example 14], for which the chromatographic logP in series [1] worked out at 2.95. Besides, the pest or weed control at 100 g/ha with Phytophthora infestans worked out at 97%.

With `CN(C)S(=O)(=O)n1c(Oc2ccc(Cl)cc2)noc1=O` [Example 15], the chromatographic logP in series [1] worked out at 2.94.

Compound `Cc1ccc(Oc2noc(=O)n2S(=O)(=O)N(C)C)cc1C` [Example 16] displayed a chromatographic logP in series [1] of 3.15. Further, the pest or weed control at 100 g/ha in the series with Phytophthora infestans is 99%.

Take `CN(C)S(=O)(=O)n1c(Oc2ccc(Br)cc2)noc1=O` [Example 17]: in the series with Phytophthora infestans, the pest or weed control at 100 g/ha worked out at 94%.

With `CN(C)S(=O)(=O)n1c(Oc2ccccc2)noc1=O` [Example 18], in series [1], the chromatographic logP is 2.48. Also, the pest or weed control at 100 g/ha in the series with Phytophthora infestans was 95%.

Take `CN(C)S(=O)(=O)n1c(Oc2ccc(F)cc2)noc1=O` [Example 19]: the chromatographic logP in series [1] turned out to be 2.58.

As to `Cc1cccc(Oc2noc(=O)n2S(=O)(=O)N(C)C)c1` [Example 20], the chromatographic logP in series [1] came to 2.83.

The compound `CN(C)S(=O)(=O)n1c(Oc2cccc(C(F)(F)F)c2)noc1=O` [Example 21] displayed a chromatographic logP in series [1] of 3.13.

`CN(C)S(=O)(=O)n1c(Oc2ccc(Cl)c(Cl)c2)noc1=O` [Example 22] had a chromatographic logP in series [1] of 3.37.

As to `COc1ccccc1Oc1noc(=O)n1S(=O)(=O)N(C)C` [Example 23], in series [1], the chromatographic logP stood at 2.49.

`CCN(CC)S(=O)(=O)n1c(Oc2cccc(OC)c2)noc1=O` [Example 28] displayed a chromatographic logP in series [1] of 3.14.

Compound `CCN(CC)S(=O)(=O)n1c(Oc2ccccc2C)noc1=O` [Example 29] returned a chromatographic logP in series [1] of 3.33.

Consider `Cc1cccc(Oc2noc(=O)n2S(=O)(=O)N(C)C)c1C` [Example 30], for which, in series [1], the chromatographic logP is 3.04.

In series [1], `CCN(CC)S(=O)(=O)n1c(Oc2ccc(C)cc2C)noc1=O` [Example 31] had a chromatographic logP of 3.72.

For the compound `Cc1cc(C)cc(Oc2noc(=O)n2S(=O)(=O)N(C)C)c1` [Example 32], the chromatographic logP in series [1] was found to be 3.18.

As for `CCN(CC)S(=O)(=O)n1c(Oc2cc(C)cc(C)c2)noc1=O` [Example 33], the chromatographic logP in series [1] was 3.75.

`COC(=O)c1cccc(Oc2noc(=O)n2S(=O)(=O)N(C)C)c1` [Example 34] had a chromatographic logP in series [1] of 2.54.

In series [1], `CCN(CC)S(=O)(=O)n1c(Oc2cc(C)ccc2C)noc1=O` [Example 35] came in with a chromatographic logP of 3.7.

The compound `CCN(CC)S(=O)(=O)n1c(Oc2cccc(C)c2C)noc1=O` [Example 36] came in with a chromatographic logP in series [1] of 3.64.

The compound `CCN(CC)S(=O)(=O)n1c(Oc2cccc(C(=O)OC)c2)noc1=O` [Example 37] came in with a chromatographic logP in series [1] of 3.09.

In series [1], `CCN(CC)S(=O)(=O)n1c(Oc2ccc(Cl)cc2)noc1=O` [Example 38] came in with a chromatographic logP of 3.53.

In series [1], `CCN(CC)S(=O)(=O)n1c(Oc2ccccc2)noc1=O` [Example 39] showed a chromatographic logP of 3.06.

As to `COc1cccc(Oc2noc(=O)n2S(=O)(=O)N(C)C)c1OC` [Example 40], the chromatographic logP in series [1] was found to be 2.58.

`CCN(CC)S(=O)(=O)n1c(Oc2c(C)cccc2C)noc1=O` [Example 42] showed a chromatographic logP in series [1] of 3.64.

`CCN(CC)S(=O)(=O)n1c(Oc2cccc(C)c2)noc1=O` [Example 43]: in series [1], the chromatographic logP was found to be 3.42.

As to `CCN(CC)S(=O)(=O)n1c(Oc2ccc(OC)cc2)noc1=O` [Example 44], the chromatographic logP in series [1] was found to be 3.1.

Take `CCN(CC)S(=O)(=O)n1c(Oc2ccc(C)cc2)noc1=O` [Example 45]: in series [1], the chromatographic logP worked out at 3.42.

Consider `CCN(CC)S(=O)(=O)n1c(Oc2ccccc2OC)noc1=O` [Example 46], for which, in series [1], the chromatographic logP was 3.05.

In the case of `CN(C)S(=O)(=O)n1c(Oc2ccccc2F)noc1=O` [Example 47], the chromatographic logP in series [1] came to 2.55.

On to `CCN(CC)S(=O)(=O)n1c(Oc2cccc(C(F)(F)F)c2)noc1=O` [Example 48], for which, in series [1], the chromatographic logP is 3.68.

Take `CCN(CC)S(=O)(=O)n1c(Oc2cccc(OC)c2OC)noc1=O` [Example 49]: the chromatographic logP in series [1] was 3.15.

Take `CCN(CC)S(=O)(=O)n1c(Oc2ccc(F)cc2)noc1=O` [Example 50]: the chromatographic logP in series [1] worked out at 3.16. This chromatographic logP and that of the compound before are within 0.2 log units of each other.

With `CN(C)S(=O)(=O)n1c(Oc2ccc(Cl)cc2Cl)noc1=O` [Example 51], the chromatographic logP in series [1] stood at 3.29.

Regarding `CN(C)S(=O)(=O)n1c(Oc2ccc(OC(F)(F)F)cc2)noc1=O` [Example 52], the chromatographic logP in series [1] was found to be 3.3.

Take `CN(C)S(=O)(=O)n1c(Oc2ccc(Oc3ccccc3)cc2)noc1=O` [Example 53]: in series [1], the chromatographic logP was 3.58.

`CCN(CC)S(=O)(=O)n1c(Oc2ccc(Oc3ccccc3)cc2)noc1=O` [Example 54] showed a chromatographic logP in series [1] of 4.19.

In series [1], `CN(C)S(=O)(=O)n1c(Oc2cccc(Cl)c2)noc1=O` [Example 55] yielded a chromatographic logP of 2.95.

Turning to `CCN(CC)S(=O)(=O)n1c(Oc2cccc(Cl)c2)noc1=O` [Example 56], the chromatographic logP in series [1] amounted to 3.53.

With `CN(C)S(=O)(=O)n1c(Oc2ccc3c(c2)CCC3)noc1=O` [Example 57], the chromatographic logP in series [1] was 3.3.

Take `CCN(CC)S(=O)(=O)n1c(Oc2ccc3c(c2)CCC3)noc1=O` [Example 58]: in series [1], the chromatographic logP stood at 3.88.

Compound `CCN(C)S(=O)(=O)n1c(Oc2ccc(Oc3ccccc3)cc2)noc1=O` [Example 59] gave a chromatographic logP in series [1] of 3.83.

In series [1], `CN(C)S(=O)(=O)n1c(Oc2ccc(-c3ccccc3)cc2)noc1=O` [Example 60] had a chromatographic logP of 3.56.

Consider `CN(C)S(=O)(=O)n1c(Oc2ccccc2-c2ccccc2)noc1=O` [Example 61], for which the chromatographic logP in series [1] was 3.37.

For `CCN(CC)S(=O)(=O)n1c(Oc2ccc(OC(F)(F)F)cc2)noc1=O` [Example 62], the chromatographic logP in series [1] came to 3.82.

Take `CCN(CC)S(=O)(=O)n1c(Oc2ccc(Cl)cc2Cl)noc1=O` [Example 63]: in series [1], the chromatographic logP was found to be 3.88.

Consider `CCN(C)S(=O)(=O)n1c(Oc2cc(C)ccc2C)noc1=O` [Example 64], for which the chromatographic logP in series [1] came to 3.42.

In the case of `COc1cccc(OC)c1Oc1noc(=O)n1S(=O)(=O)N(C)C` [Example 65], in series [1], the chromatographic logP came out at 2.51.

Values taken from US6100281A, “Sulphonyloxadiazolones” (Bayer Aktiengesellschaft, priority 1997, dated 2000).
